Values of other authors as cited in patent US7794994B2 (Kemeta, LLC, priority 2001, dated 2010).
Like-named read-outs stand apart in the source and are kept apart here.

Experiments:
[1] = test system: S-ADH from Pseudomonas species 6307; conditions: cited from earlier work
[2] = test system: acetone carboxylase from Rhodobacter capsulatus strain B10; conditions: cited from earlier work
[3] = as reported by NIST; cited from earlier work

Row | SMILES | inhibition by ethanol ([1]; in the presence of 10 mM ethanol) [%] | inhibition by ethanol ([1]; in the presence of 100 mM ethanol) [%] | Km [2] [µM] | Vmax [2] | Henry's Law constant [3] [M·atm^−1]
1 | CCO [Ethanol] | 0 | 30 | – | – | –
2 | CC(C)=O [Acetone, acetone] | – | – | 8.2 | 0.291 μmol acetone consumed·min^−1mg^−1 protein | 24
